From ChEMBL document CHEMBL5634178, “Precursor-Directed Biosynthesis of Neoantimycin Derivatives with Selective Cytotoxicity” (J Nat Prod, 2024)

How the values were obtained:
HT-29 = test: Cytotoxicity against wild type human HT-29 cells assessed as reduction in cell viability incubated for 72 hrs by CCK-8 assay; assay type: functional, cell-based; details: HT-29, 72 h
NCI-H460 = test: Cytotoxicity against human NCI-H460 cells expressing K-Ras Q61H mutant assessed as reduction in cell viability incubated for 72 hrs by CCK-8 assay; assay type: functional, cell-based; details: NCI-H460, 72 h
[1] = Cytotoxicity against human NCM460 cells assessed as reduction in cell viability incubated for 72 hrs by CCK-8 assay; assay type: toxicity, cell-based
A549 = test: Cytotoxicity against human A549 cells expressing K-Ras […] mutant assessed as reduction in cell viability incubated for 72 hrs by CCK-8 assay; assay type: functional, cell-based; details: A549, 72 h
SW-620 = test: Cytotoxicity against human SW620 cells expressing K-Ras G12V mutant assessed as reduction in cell viability incubated for 72 hrs by CCK-8 assay; assay type: functional, cell-based; details: SW-620, 72 h
DLD-1 = test: Cytotoxicity against human DLD-1 cells expressing K-Ras G13D mutant assessed as reduction in cell viability incubated for 72 hrs by CCK-8 assay; assay type: functional, cell-based; details: DLD-1, 72 h
NCI-H1299 = test: Cytotoxicity against human NCI-H1299 cells expressing N-ras mutant assessed as reduction in cell viability incubated for 72 hrs by CCK-8 assay; assay type: functional, cell-based; details: NCI-H1299, 72 h

Question: For CC[C@H](C)[C@@H]1OC(=O)C(C)(C)[C@@H](O)[C@@H](Cc2ccccc2)OC(=O)[C@H](C(C)C)OC(=O)[C@@H](NC(=O)c2cccc(NC=O)c2O)[C@@H](C)OC1=O, which IC50 (HT-29) is on record?
Answer: 0.0006 µM

Question: What about the IC50 (NCI-H460) of the same molecule?
Answer: 0.316 µM

Question: What about the IC50 at 72 h [1] of the same molecule?
Answer: 0.00024 µM

Question: What about the IC50 (A549) of the same molecule?
Answer: 4e-05 µM

Question: And the IC50 (SW-620)?
Answer: 0.0038 µM

Question: What about the IC50 (DLD-1) of the same molecule?
Answer: 0.059 µM

Question: What about the IC50 (NCI-H1299) of the same molecule?
Answer: 0.0105 µM

Question: With CC[C@H](C)[C@@H]1OC(=O)C(C)(C)C(=O)[C@H](Cc2ccccc2)OC(=O)[C@H](C(C)C)OC(=O)[C@@H](NC(=O)c2cccc(O)c2)[C@@H](C)OC1=O as the molecule, how does the IC50 (HT-29) read?
Answer: > 20 µM

Question: What about the IC50 (NCI-H460) of the same molecule?
Answer: 17.9 µM

Question: And the IC50 at 72 h [1]?
Answer: > 20 µM

Question: What about the IC50 (A549) of the same molecule?
Answer: > 20 µM

Question: And the IC50 (SW-620)?
Answer: 1.3 µM

Question: What about the IC50 (DLD-1) of the same molecule?
Answer: > 20 µM

Question: What about the IC50 (NCI-H1299) of the same molecule?
Answer: 3.1 µM

Question: Which results are given for CC[C@H](C)[C@@H]1OC(=O)C(C)(C)C(=O)[C@@H](Cc2ccccc2)OC(=O)[C@H](C(C)C)OC(=O)[C@@H](NC(=O)c2cccc(O)c2)[C@@H](C)OC1=O?
Answer: IC50 (HT-29): > 20 µM; IC50 (NCI-H460): > 20 µM; IC50 at 72 h [1]: > 20 µM; IC50 (A549): 10.1 µM; IC50 (SW-620): 1.9 µM; IC50 (DLD-1): > 20 µM; IC50 (NCI-H1299): > 20 µM

Question: For CC[C@H](C)[C@@H]1OC(=O)C(C)(C)C(=O)[C@H](Cc2ccccc2)OC(=O)[C@H](C(C)C)OC(=O)[C@@H](NC(=O)c2ccccc2)[C@@H](C)OC1=O, which IC50 (HT-29) is on record?
Answer: > 20 µM

Question: And the IC50 (NCI-H460)?
Answer: > 20 µM

Question: What about the IC50 at 72 h [1] of the same molecule?
Answer: > 20 µM

Question: And the IC50 (A549)?
Answer: > 20 µM

Question: What about the IC50 (SW-620) of the same molecule?
Answer: 0.36 µM

Question: And the IC50 (DLD-1)?
Answer: 1.9 µM

Question: And the IC50 (NCI-H1299)?
Answer: > 20 µM

Question: Which IC50 (HT-29) does the source give for CC[C@H](C)[C@@H]1OC(=O)C(C)(C)C(=O)[C@@H](Cc2ccccc2)OC(=O)[C@H](C(C)C)OC(=O)[C@@H](NC(=O)c2ccccc2F)[C@@H](C)OC1=O here?
Answer: > 20 µM

Question: And the IC50 (NCI-H460)?
Answer: 1.3 µM

Question: What about the IC50 at 72 h [1] of the same molecule?
Answer: > 20 µM

Question: What about the IC50 (A549) of the same molecule?
Answer: 4.3 µM

Question: And the IC50 (SW-620)?
Answer: 0.14 µM

Question: And the IC50 (DLD-1)?
Answer: 0.6 µM

Question: What about the IC50 (NCI-H1299) of the same molecule?
Answer: 3.3 µM

Question: For CC[C@H](C)[C@@H]1OC(=O)C(C)(C)C(=O)[C@H](Cc2ccccc2)OC(=O)[C@H](C(C)C)OC(=O)[C@@H](NC(=O)c2cccc(F)c2)[C@@H](C)OC1=O, which IC50 (HT-29) is on record?
Answer: > 20 µM

Question: And the IC50 (NCI-H460)?
Answer: > 20 µM

Question: And the IC50 at 72 h [1]?
Answer: > 20 µM

Question: What about the IC50 (A549) of the same molecule?
Answer: > 20 µM

Question: And the IC50 (SW-620)?
Answer: 1.1 µM

Question: And the IC50 (DLD-1)?
Answer: 3.5 µM

Question: What about the IC50 (NCI-H1299) of the same molecule?
Answer: > 20 µM

Question: What does the source list for CC[C@H](C)[C@@H]1OC(=O)C(C)(C)C(=O)[C@@H](Cc2ccccc2)OC(=O)[C@H](C(C)C)OC(=O)[C@@H](NC(=O)c2ccccc2)[C@@H](C)OC1=O?
Answer: IC50 (HT-29): > 20 µM; IC50 (NCI-H460): 1.6 µM; IC50 at 72 h [1]: > 20 µM; IC50 (A549): 0.33 µM; IC50 (SW-620): 0.04 µM; IC50 (DLD-1): 0.07 µM; IC50 (NCI-H1299): 4.5 µM

Question: With CC[C@H](C)[C@@H]1OC(=O)C(C)(C)C(=O)[C@@H](Cc2ccccc2)OC(=O)[C@H](C(C)C)OC(=O)[C@@H](NC(=O)c2ccccc2O)[C@@H](C)OC1=O as the molecule, how does the IC50 (HT-29) read?
Answer: > 20 µM

Question: And the IC50 (NCI-H460)?
Answer: 4.4 µM

Question: What about the IC50 at 72 h [1] of the same molecule?
Answer: 6.6 µM

Question: What about the IC50 (A549) of the same molecule?
Answer: 9.7 µM

Question: What about the IC50 (SW-620) of the same molecule?
Answer: 0.33 µM

Question: And the IC50 (DLD-1)?
Answer: 2.8 µM

Question: What about the IC50 (NCI-H1299) of the same molecule?
Answer: > 20 µM

Question: Which IC50 (HT-29) does the source give for CC[C@H](C)[C@@H]1OC(=O)C(C)(C)C(=O)[C@H](Cc2ccccc2)OC(=O)[C@H](C(C)C)OC(=O)[C@@H](NC(=O)c2ccccc2F)[C@@H](C)OC1=O here?
Answer: 9.4 µM

Question: What about the IC50 (NCI-H460) of the same molecule?
Answer: > 20 µM

Question: What about the IC50 at 72 h [1] of the same molecule?
Answer: > 20 µM

Question: What about the IC50 (A549) of the same molecule?
Answer: > 20 µM

Question: What about the IC50 (SW-620) of the same molecule?
Answer: 0.56 µM

Question: What about the IC50 (DLD-1) of the same molecule?
Answer: 2.6 µM

Question: What about the IC50 (NCI-H1299) of the same molecule?
Answer: > 20 µM

Question: With CC[C@H](C)[C@@H]1OC(=O)C(C)(C)C(=O)[C@@H](Cc2ccccc2)OC(=O)[C@H](C(C)C)OC(=O)[C@@H](NC(=O)c2cccc(F)c2)[C@@H](C)OC1=O as the molecule, how does the IC50 (HT-29) read?
Answer: > 20 µM

Question: What about the IC50 (NCI-H460) of the same molecule?
Answer: 8.8 µM

Question: What about the IC50 at 72 h [1] of the same molecule?
Answer: > 20 µM

Question: And the IC50 (A549)?
Answer: 11.2 µM

Question: What about the IC50 (SW-620) of the same molecule?
Answer: 0.33 µM

Question: And the IC50 (DLD-1)?
Answer: 2.7 µM

Question: What about the IC50 (NCI-H1299) of the same molecule?
Answer: > 20 µM
